pIC50: −log10 of the molar value.
Columns and labels:
[1] = target: T1, GDP-loaded HIS-KRAS(G12D, aa 1-169) (Homo sapiens, UniProt P01116, G12D); experiment: SOS1 catalyzed nucleotide exchange assay (TR-FRET); format: biochemical; conditions: 4 hours at 25° C.
T1 construct: GDP-loaded HIS-KRAS(G12D, aa 1-169)
Procedure: GDP-loaded HIS-KRAS(G12D, aa 1-169) was pre-incubated with a compound in the presence of 10 nM GDPin a 384-well plate (Greiner) for 15 min, then purified SOS1 ExD(Flag tag, aa 564-1049), BODIPY™ FL GTP (Invitrogen) and MAb (monoclonal antibody) Anti 6HIS-Tb cryptate Gold (Cisbio) were added to the assay wells (Final concentration: 1.5 nM GDP-loaded HIS-KRAS(G12D), 5 nM GDP, 0.5 μM SOS1 ExD, 80 nM BODIPY™ FL GTP, 52.5 ng/mL MAb Anti 6HIS-Tb cryptate Gold) and incubated for 4 hours at 25° C. Wells containing same percent of DMSO served as vehicle control, and wells without KRAS served as low control. TR-FRET signals were read on Tecan Spark multimode microplate reader. The parameters were F486: Excitation 340 nm, Emission 486 nm, Lag time 100 μs, Integration time 200 μs; F515: Excitation 340 nm, Emission 515 nm, Lag time 100 μs, Integration time 200 μs. TR-FRET ratios for each individual wells were calculated by equation: TR-FRET ratio=(Signal F515/Signal F486)*10000. The percent of activation of compounds treated wells were normalized between vehicle control and low control (% Activation=(TR-FRET ratioCompound treated−TR-FRET ratioLow control)/(TR-FRET ratioVehicle control−TR-FRET ratioLow control)*100%). Then the data were analyzed by fitting a 4-parameter logistic model or calculating in Excel to calculate IC50 values.

[2] = target: T2, GppNp-loaded HIS-KRAS(G12D, aa 1-169) and cRAF RBD (Homo sapiens, UniProt P01116, G12D); experiment: GTP-KRAS and cRAF interaction assay (HTRF); format: biochemical; conditions: 2 hours at 25° C.
T2 construct: GppNp-loaded HIS-KRAS(G12D, aa 1-169)
T2 sequence (P01116 1-169 isoform P01116-2 G12D): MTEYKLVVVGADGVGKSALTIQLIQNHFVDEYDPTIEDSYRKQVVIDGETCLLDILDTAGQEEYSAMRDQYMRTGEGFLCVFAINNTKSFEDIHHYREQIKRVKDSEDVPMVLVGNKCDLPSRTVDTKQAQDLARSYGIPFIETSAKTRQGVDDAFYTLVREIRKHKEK
Procedure: GppNp-loaded HIS-KRAS(G12D, aa 1-169) was pre-incubated with a compound in the presence of 200 μM GTP in a 384-well plate (Greiner) for 15 min, then cRAF RBD(GST tag, aa 50-132, CreativeBioMart), MAb Anti GST-d2 (Cisbio) and MAb Anti 6HIS-Tb cryptate Gold (Cisbio) were added to the assay wells (Final concentration: 2.0 nM GppNp-loaded HIS-KRAS(G12D), 100 μM GTP, 35 nM cRAF RBD, 1 μg/mL MAb Anti GST-d2, 52.5 ng/mL MAb Anti 6HIS-Tb cryptate Gold) and incubated for 2 hours at 25° C. Wells containing same percent of DMSO served as vehicle control, and wells without KRAS served as low control. HTRF signals were read on Tecan Spark multimode microplate reader and HTRF ratios were calculated under manufacturer's instructions. The percent of activation of compounds treated wells were normalized between vehicle control and low control (% Activation=(HTRF ratioCompound treated−HTRF ratioLow control)/(HTRF ratioVehicle control−HTRF ratioLow control)*100%). Then the data were analyzed by fitting a 4-parameter logistic model or calculating in Excel to calculate IC50 values.

AGS = experiment: Cell growth inhibition assay, AGS (CellTiter-Glo); format: cell-based; conditions: Homo sapiens, 144 h; AGS cell viability, 6 days incubation
Procedure: AGS cultured in F12K medium (Gibco) containing 10% fetal bovine serum (Gibco). Cells in culture medium were plated in 96-well plates at a concentration of 500 cells/well (100 μL/well) and allowed to attach overnight.
(§1) The next day, compounds were diluted in culture medium and added to the plates. After 6 days incubation in a 37° C./5% CO2 cell incubator, the cell viability was detected by CellTiter-Glo® Luminescent Cell Viability Assay kit (Promega). Luminescent signals were read on Tecan Spark multimode microplate reader and analyzed using a 4-parameter logistic model to calculate IC50 values.

AsPC-1 = experiment: Cell growth inhibition assay, AsPC-1 (CellTiter-Glo); format: cell-based; conditions: Homo sapiens, ASPC1, 144 h; AsPC-1 cell viability, 6 days incubation
Procedure: AsPC-1 cultured in RPMI-1640 medium (Gibco) containing 10% fetal bovine serum (Gibco). Cells in culture medium were plated in 96-well plates at a concentration of 1000 cells/well (100 μL/well) and allowed to attach overnight.
as §1

[3] = tested on: AGS cells expressing KRAS G12D; experiment: Phospho-ERK1/2(THR202/TYR204) HTRF assay; format: cell-based; conditions: Homo sapiens; Phospho-ERK1/2 in AGS cells, 2 hours incubation
Procedure: AGS cells expressing KRAS G12D were cultured in F12K medium (Gibco) containing 10% fetal bovine serum (Gibco). The AGS cells in culture medium were seeded in 96-well plates at a concentration of 40,000 cells/well and then put in a 37° C./5% CO2 cell incubator to incubate overnight. The next day, culture medium was removed and the compound diluted in assay medium (F12K, 0.1% FBS) was added in each well. After 2 hours incubation in a 37° C./5% CO2 cell incubator, the assay medium in 96-well plates was removed, then 50 μL of 1× blocking reagent-supplemented lysis buffer (Cisbio) was added and the plates were incubated at 25° C. for 45 min with shaking. 10 μL of cell lysates from the 96-well plates were transferred to a 384-well plate (Greiner) containing 2.5 μL/well HTRF® pre-mixed antibodies (Cisbio 64AERPEH). Incubate 4 hours at 25° C. and then read HTRF signals on Tecan Spark multimode microplate reader. The data were analyzed using a 4-parameter logistic model to calculate IC50 values.

T1 sequence (P01116 1-169 isoform P01116-2 G12D): as above

Compound | pIC50 [1] | pIC50 [2] | pIC50 (AGS) | pIC50 (AsPC-1) | pIC50 [3]
C#Cc1cccc2cc(O)cc(-c3c(F)cc4c(N5CC6CCC(C5)N6)nc(OCC5(CN6CCOC7(CC7)C6)CC5)nc4c3F)c12 (single isomer, unassigned) [Compound 2A] | < 7.00 | < 5.00 |  |  | 
C#Cc1cccc2cc(O)cc(-c3c(F)cc4c(N5CC6CCC(C5)N6)nc(OCC5(CN6CCOC7(CC7)C6)CC5)nc4c3F)c12 (single isomer, unassigned) [Compound 2B] | 8.91 | 7.38 | 9.05 | 7.87 | 7.52
C#Cc1cccc2cc(O)cc(-c3c(F)cc4c(N5CC6CCC(C5)N6)nc(OCC5(CN6CCC7(CC6)CC7(F)F)CC5)nc4c3F)c12 (single isomer, unassigned) [Compound 3A] | < 7.00 | 5.04 |  |  | 
C#Cc1c(F)ccc2cc(O)cc(-c3c(Cl)cc4c(N5CC6CCC(C5)N6)nc(OCC5(CN6CC7CC6CO7)CC5)nc4c3F)c12 (single isomer, unassigned) [Compound 4A] | 6.61 | 5.80 |  |  | 
C#Cc1c(F)ccc2cc(O)cc(-c3c(Cl)cc4c(N5CC6CCC(C5)N6)nc(OCC5(CN6CC7CC6CO7)CC5)nc4c3F)c12 (single isomer, unassigned) [Compound 4B] | 9.51 | 8.04 |  |  | 
C#Cc1cccc2cc(O)cc(-c3c(F)cc4c(N5CC6CCC(C5)N6)nc(OCC5(CN6CC7CC6CO7)CC5)nc4c3F)c12 (single isomer, unassigned) [Compound 13A] | < 7.00 | < 5.00 |  |  | 6.57
C#Cc1cccc2cc(O)cc(-c3c(F)cc4c(N5CC6CCC(C5)N6)nc(OCC5(CN6CC7CC6CO7)CC5)nc4c3F)c12 (single isomer, unassigned) [Compound 36A] | < 7.00 | 7.69 |  |  | 
C#Cc1cccc2cc(O)cc(-c3c(F)cc4c(N5CC6CCC(C5)N6)nc(OCC5(CN6CCC6)CC5)nc4c3F)c12 [Compound 1] | 8.27 | 6.61 |  |  | 7.23
C#Cc1cccc2cc(O)cc(-c3c(F)cc4c(N5CC6CCC(C5)N6)nc(OCC5(CN6CCOC7(CC7)C6)CC5)nc4c3F)c12 [Compound 2] | 7.59 | 6.64 |  |  | 
C#Cc1cccc2cc(O)cc(-c3c(F)cc4c(N5CC6CCC(C5)N6)nc(OCC5(CN6CCC7(CC6)CC7(F)F)CC5)nc4c3F)c12 [Compound 3] | 7.43 | 6.94 | 8.17 | 7.64 | 7.02
C#Cc1c(F)ccc2cc(O)cc(-c3c(Cl)cc4c(N5CC6CCC(C5)N6)nc(OCC5(CN6C[C@@H]7C[C@H]6CO7)CC5)nc4c3F)c12 [Compound 4] |  |  |  |  | 7.41
C#Cc1cccc2cc(O)cc(-c3c(F)cc4c(N5CC6CCC(C5)N6)nc(OCC5(CN6CCCC7(C6)CC7(F)F)CC5)nc4c3F)c12 (centres unmarked) [Compound 5] | 7.26 | 6.51 | 7.68 | 7.21 | 
C#Cc1cccc2cc(O)cc(-c3c(F)cc4c(N5CC6CCC(C5)N6)nc(OCC5(CN6CCOC7(CCC7)C6)CC5)nc4c3F)c12 [Compound 6] | 7.18 | 6.36 |  |  | 
C#Cc1cccc2cc(O)cc(-c3c(F)cc4c(N5CC6CCC(C5)N6)nc(OCC5(CN6CC7CC6CO7)CC5)nc4c3F)c12 (centres unmarked) [Compound 13] | 7.92 |  |  |  | 
C#Cc1cccc2cc(O)cc(-c3c(F)cc4c(N5CC6CCC(C5)N6)nc(OCC5(CN6CCc7ccccc7C6)CC5)nc4c3F)c12 [Compound 16] | 7.56 |  |  |  | 
C#Cc1cccc2cc(O)cc(-c3c(F)cc4c(N5CC6CCC(C5)N6)nc(OCC5(CN6CC7(CC(O)C7)C6)CC5)nc4c3F)c12 [Compound 18] | 9.01 | 7.11 |  |  | 
C#Cc1cccc2cc(O)cc(-c3ccc4c(N5CC6CCC(C5)N6)nc(OCC5(Cc6ccccn6)CC5)nc4c3F)c12 [Compound 23] | < 7.00 | < 5.00 |  |  | 
C#Cc1cccc2cc(O)cc(-c3c(F)cc4c(N5CC6CCC(C5)N6)nc(OCC5(CN6CC(O)C6)CC5)nc4c3F)c12 [Compound 26] | 8.59 | 6.95 |  |  | 7.25
C#Cc1cccc2cc(O)cc(-c3c(F)cc4c(N5CC6CCC(C5)N6)nc(OCC5(CN6CC(C)(O)C6)CC5)nc4c3F)c12 [Compound 29] | 8.46 | 7.15 |  |  | 7.60
C#Cc1c(F)ccc2cc(O)cc(-c3c(C(C)C)cc4c(N5CC6CCC(C5)N6)nc(OCC5(CN6C[C@@H]7C[C@H]6CO7)CC5)nc4c3F)c12 [Compound 38] | 8.94 | 8.24 |  |  | 
C#Cc1c(F)ccc2cc(O)cc(-c3c(C(F)(F)F)cc4c(N5CC6CCC(C5)N6)nc(OCC5(CN6C[C@@H]7C[C@H]6CO7)CC5)nc4c3F)c12 [Compound 40] | 8.89 | 8.09 |  |  | 
C#Cc1c(F)ccc2cc(O)cc(-c3c(C#N)cc4c(N5CC6CCC(C5)N6)nc(OCC5(CN6C[C@@H]7C[C@H]6CO7)CC5)nc4c3F)c12 [Compound 41] | 8.98 | 8.14 |  |  | 
C#Cc1c(F)ccc2cc(O)cc(-c3c(SC(F)(F)F)cc4c(N5CC6CCC(C5)N6)nc(OCC5(CN6C[C@@H]7C[C@H]6CO7)CC5)nc4c3F)c12 [Compound 42] | 9.01 | 8.39 |  |  | 
CCc1c(F)ccc2cc(O)cc(-c3c(C(F)(F)F)cc4c(N5CC6CCC(C5)N6)nc(OCC5(CN6C[C@@H]7C[C@H]6CO7)CC5)nc4c3F)c12 [Compound 43] | 8.33 | 6.36 |  |  | 
C#Cc1cccc2cc(O)cc(-c3c(F)cc4c(N5CC6CCC(C5)N6)nc(OCC5(CN6CC7(CCCO7)C6)CC5)nc4c3F)c12 [Compound 44] | 7.45 |  |  |  | 
C#Cc1cccc2cc(O)cc(-c3c(F)cc4c(N5CC6CCC(C5)N6)nc(OCC5(CN6CC7(CC(OC)C7)C6)CC5)nc4c3F)c12 [Compound 49] | 8.40 | 7.14 |  |  | 7.33
C#Cc1cccc2cc(O)cc(-c3c(F)cc4c(N5CC6CCC(C5)N6)nc(OCC5(CN6CCn7cncc7C6)CC5)nc4c3F)c12 [Compound 53] | 8.59 | 6.09 |  |  | 7.10
C#Cc1cccc2cc(O)cc(-c3c(F)cc4c(N5CC6CCC(C5)N6)nc(OCC5(CN6C7COCC6C7)CC5)nc4c3F)c12 [Compound 57] | 8.17 | 6.36 |  |  | 7.33
C#Cc1cccc2cc(O)cc(-c3c(F)cc4c(N5CC6CCC(C5)N6)nc(OCC5(CN6Cc7ccccc7C6)CC5)nc4c3F)c12 [Compound 58] | 8.69 | 6.73 | 7.47 | 7.04 | 
